system: PC-3; experiment: Antiproliferative activity against human PC3 cells after 72 hrs by MTT assay; assay type: functional, cell-based; conditions: PC-3, 72 h

Row | IC50 | SMILES
1 | 2410 nM | CC(=O)Nc1ccc(-c2nc(Nc3ccc(OCCCCCC(=O)NO)cc3)ncc2C)cc1
2 | 2760 nM | CC(=O)Nc1ccc(-c2nc(Nc3cccc(OCCCCCCC(=O)NO)c3)ncc2C)cc1
3 | 5580 nM | O=C(CCCCCCC(=O)Nc1ccc(-c2ccnc(Nc3ccc(N4CCCCC4)cc3)n2)cc1)NO
4 | 1700 nM | O=C(CCCCCCOc1ccc2cc1COC/C=C/COCc1cccc(c1)-c1ccnc(n1)N2)NO

system: not listed separately; experiment: Antiproliferative activity against human AC10 cells after 72 hrs by MTT assay; assay type: cell-based; conditions: not given

Row | SMILES | CC50 at 72 h
5 | CC(=O)Nc1ccc(-c2nc(Nc3ccc(OCCCCCC(=O)NO)cc3)ncc2C)cc1 | 16900 nM
6 | CC(=O)Nc1ccc(-c2nc(Nc3cccc(OCCCCCCC(=O)NO)c3)ncc2C)cc1 | 4840 nM
7 | O=C(CCCCCCC(=O)Nc1ccc(-c2ccnc(Nc3ccc(N4CCCCC4)cc3)n2)cc1)NO | 11700 nM

system: not listed separately; experiment: Selectivity index, ratio of CC50 for human AC10 cells to IC50 for human PC3 cells; assay type: toxicity; conditions: AC10 cells (CC50) and PC3 cells (IC50)

Row | SMILES | selectivity ratio
8 | CC(=O)Nc1ccc(-c2nc(Nc3ccc(OCCCCCC(=O)NO)cc3)ncc2C)cc1 | 7.02
9 | CC(=O)Nc1ccc(-c2nc(Nc3cccc(OCCCCCCC(=O)NO)c3)ncc2C)cc1 | 1.75

system: HCT-116; experiment: Antiproliferative activity against human HCT116 cells after 72 hrs by MTT assay; assay type: functional, cell-based; conditions: HCT-116, 72 h

Row | IC50 | SMILES
10 | 920 nM | CC(=O)Nc1ccc(-c2nc(Nc3ccc(OCCCCCC(=O)NO)cc3)ncc2C)cc1
11 | 1190 nM | CC(=O)Nc1ccc(-c2nc(Nc3cccc(OCCCCCCC(=O)NO)c3)ncc2C)cc1
12 | 1070 nM | O=C(CCCCCCC(=O)Nc1ccc(-c2ccnc(Nc3ccc(N4CCCCC4)cc3)n2)cc1)NO

system: not listed separately; experiment: Selectivity index, ratio of CC50 for human AC10 cells to IC50 for human MDA-MB-231 cells; assay type: toxicity; conditions: AC10 cells (CC50) and MDA-MB-231 cells (IC50)

Row | SMILES | selectivity ratio
13 | CC(=O)Nc1ccc(-c2nc(Nc3ccc(OCCCCCC(=O)NO)cc3)ncc2C)cc1 | 16
14 | CC(=O)Nc1ccc(-c2nc(Nc3cccc(OCCCCCCC(=O)NO)c3)ncc2C)cc1 | 3.46

system: MCF7; experiment: Antiproliferative activity against human MCF7 cells after 72 hrs by MTT assay; assay type: functional, cell-based; conditions: MCF7, 72 h

Row | IC50 | SMILES
15 | 2370 nM | CC(=O)Nc1ccc(-c2nc(Nc3ccc(OCCCCCC(=O)NO)cc3)ncc2C)cc1
16 | 1710 nM | CC(=O)Nc1ccc(-c2nc(Nc3cccc(OCCCCCCC(=O)NO)c3)ncc2C)cc1
17 | 1890 nM | O=C(CCCCCCC(=O)Nc1ccc(-c2ccnc(Nc3ccc(N4CCCCC4)cc3)n2)cc1)NO

target: Tyrosine-protein kinase JAK2 (Homo sapiens, UniProt O60674); experiment: Inhibition of human JAK2 using poly(Glu:Tyr)(4:1) as substrate preincubated for 20 mins followed by [gamma33P]ATP addition measured after 120 mins by ion exchange filter paper method; conditions: not given
Sequence (O60674 whole entry): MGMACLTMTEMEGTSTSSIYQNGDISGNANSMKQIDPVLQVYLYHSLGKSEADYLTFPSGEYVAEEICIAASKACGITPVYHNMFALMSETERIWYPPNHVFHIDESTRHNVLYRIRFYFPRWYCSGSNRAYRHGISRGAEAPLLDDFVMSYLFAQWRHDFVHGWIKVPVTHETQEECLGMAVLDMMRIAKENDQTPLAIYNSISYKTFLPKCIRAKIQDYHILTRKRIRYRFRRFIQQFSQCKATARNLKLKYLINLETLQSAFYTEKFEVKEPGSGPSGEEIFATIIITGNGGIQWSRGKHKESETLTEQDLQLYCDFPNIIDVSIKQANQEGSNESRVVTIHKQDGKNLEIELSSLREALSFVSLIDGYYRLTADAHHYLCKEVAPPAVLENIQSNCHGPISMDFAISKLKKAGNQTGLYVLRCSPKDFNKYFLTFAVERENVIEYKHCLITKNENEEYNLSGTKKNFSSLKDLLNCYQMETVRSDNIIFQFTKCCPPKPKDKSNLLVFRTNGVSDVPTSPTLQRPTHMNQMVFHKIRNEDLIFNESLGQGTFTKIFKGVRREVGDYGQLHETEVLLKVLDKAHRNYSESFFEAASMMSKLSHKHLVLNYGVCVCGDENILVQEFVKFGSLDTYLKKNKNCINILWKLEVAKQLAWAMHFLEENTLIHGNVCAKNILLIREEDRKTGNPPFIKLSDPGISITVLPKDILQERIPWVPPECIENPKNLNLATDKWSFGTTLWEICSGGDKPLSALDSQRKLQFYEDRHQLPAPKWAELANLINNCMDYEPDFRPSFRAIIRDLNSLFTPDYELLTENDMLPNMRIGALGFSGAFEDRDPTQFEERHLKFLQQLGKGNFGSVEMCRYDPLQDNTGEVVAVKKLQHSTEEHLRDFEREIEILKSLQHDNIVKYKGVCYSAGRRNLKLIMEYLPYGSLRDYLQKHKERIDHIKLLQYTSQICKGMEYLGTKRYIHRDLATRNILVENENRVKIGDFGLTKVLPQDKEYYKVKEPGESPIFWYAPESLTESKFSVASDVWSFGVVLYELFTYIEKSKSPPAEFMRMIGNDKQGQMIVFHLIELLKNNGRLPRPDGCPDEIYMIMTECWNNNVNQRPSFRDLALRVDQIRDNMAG

Row | IC50 | SMILES
18 | 25.6 nM | CC(=O)Nc1ccc(-c2nc(Nc3ccc(OCCCCCC(=O)NO)cc3)ncc2C)cc1
19 | 3.9 nM | CC(=O)Nc1ccc(-c2nc(Nc3cccc(OCCCCCCC(=O)NO)c3)ncc2C)cc1

system: not listed separately; experiment: Antiproliferative activity against mouse TAMH cells after 72 hrs by MTT assay; assay type: cell-based; conditions: not given

Row | SMILES | CC50 at 72 h
20 | CC(=O)Nc1ccc(-c2nc(Nc3ccc(OCCCCCC(=O)NO)cc3)ncc2C)cc1 | 5580 nM
21 | CC(=O)Nc1ccc(-c2nc(Nc3cccc(OCCCCCCC(=O)NO)c3)ncc2C)cc1 | 3940 nM
22 | O=C(CCCCCCC(=O)Nc1ccc(-c2ccnc(Nc3ccc(N4CCCCC4)cc3)n2)cc1)NO | 12900 nM

system: not listed separately; experiment: Selectivity index, ratio of CC50 for human AC10 cells to IC50 for human MCF7 cells; assay type: toxicity; conditions: AC10 cells (CC50) and MCF7 cells (IC50)

Row | SMILES | selectivity ratio
23 | CC(=O)Nc1ccc(-c2nc(Nc3ccc(OCCCCCC(=O)NO)cc3)ncc2C)cc1 | 7.14
24 | CC(=O)Nc1ccc(-c2nc(Nc3cccc(OCCCCCCC(=O)NO)c3)ncc2C)cc1 | 2.83

system: MDA-MB-231; experiment: Antiproliferative activity against human MDA-MB-231 cells after 72 hrs by MTT assay; assay type: functional, cell-based; conditions: MDA-MB-231, 72 h

Row | IC50 | SMILES
25 | 1060 nM | CC(=O)Nc1ccc(-c2nc(Nc3ccc(OCCCCCC(=O)NO)cc3)ncc2C)cc1
26 | 1400 nM | CC(=O)Nc1ccc(-c2nc(Nc3cccc(OCCCCCCC(=O)NO)c3)ncc2C)cc1
27 | 2830 nM | O=C(CCCCCCC(=O)Nc1ccc(-c2ccnc(Nc3ccc(N4CCCCC4)cc3)n2)cc1)NO

system: not listed separately; experiment: Selectivity index, ratio of CC50 for mouse TAMH cells to IC50 for human PC3 cells; assay type: toxicity; conditions: TAMH cells (CC50) and PC3 cells (IC50)

Row | SMILES | selectivity ratio
28 | CC(=O)Nc1ccc(-c2nc(Nc3ccc(OCCCCCC(=O)NO)cc3)ncc2C)cc1 | 2.32
29 | CC(=O)Nc1ccc(-c2nc(Nc3cccc(OCCCCCCC(=O)NO)c3)ncc2C)cc1 | 1.43

system: not listed separately; experiment: Selectivity index, ratio of CC50 for mouse TAMH cells to IC50 for human HCT116 cells; assay type: toxicity; conditions: TAMH cells (CC50) and HCT116 cells (IC50)

Row | SMILES | selectivity ratio
30 | CC(=O)Nc1ccc(-c2nc(Nc3ccc(OCCCCCC(=O)NO)cc3)ncc2C)cc1 | 6.07
31 | CC(=O)Nc1ccc(-c2nc(Nc3cccc(OCCCCCCC(=O)NO)c3)ncc2C)cc1 | 3.31

system: not listed separately; experiment: Selectivity index, ratio of CC50 for mouse TAMH cells to IC50 for human MDA-MB-231 cells; assay type: toxicity; conditions: TAMH cells (CC50) and MDA-MB-231 cells (IC50)

Row | SMILES | selectivity ratio
32 | CC(=O)Nc1ccc(-c2nc(Nc3ccc(OCCCCCC(=O)NO)cc3)ncc2C)cc1 | 5.26
33 | CC(=O)Nc1ccc(-c2nc(Nc3cccc(OCCCCCCC(=O)NO)c3)ncc2C)cc1 | 2.81

system: not listed separately; experiment: Selectivity index, ratio of CC50 for human AC10 cells to IC50 for human HCT116 cells; assay type: toxicity; conditions: AC10 cells (CC50) and HCT116 cells (IC50)

Row | SMILES | selectivity ratio
34 | CC(=O)Nc1ccc(-c2nc(Nc3ccc(OCCCCCC(=O)NO)cc3)ncc2C)cc1 | 18.4
35 | CC(=O)Nc1ccc(-c2nc(Nc3cccc(OCCCCCCC(=O)NO)c3)ncc2C)cc1 | 4.07

target: Histone deacetylase 1 (Homo sapiens, UniProt Q13547); experiment: Inhibition of HDAC1 (unknown origin) using Arg-His-Lys-Lys(Ac) as substrate preincubated with enzyme followed by substrate addition for 2 hrs and measured for 1.5 hrs at 15 mins time interval by fluorescence assay; conditions: not given
Sequence (Q13547 whole entry): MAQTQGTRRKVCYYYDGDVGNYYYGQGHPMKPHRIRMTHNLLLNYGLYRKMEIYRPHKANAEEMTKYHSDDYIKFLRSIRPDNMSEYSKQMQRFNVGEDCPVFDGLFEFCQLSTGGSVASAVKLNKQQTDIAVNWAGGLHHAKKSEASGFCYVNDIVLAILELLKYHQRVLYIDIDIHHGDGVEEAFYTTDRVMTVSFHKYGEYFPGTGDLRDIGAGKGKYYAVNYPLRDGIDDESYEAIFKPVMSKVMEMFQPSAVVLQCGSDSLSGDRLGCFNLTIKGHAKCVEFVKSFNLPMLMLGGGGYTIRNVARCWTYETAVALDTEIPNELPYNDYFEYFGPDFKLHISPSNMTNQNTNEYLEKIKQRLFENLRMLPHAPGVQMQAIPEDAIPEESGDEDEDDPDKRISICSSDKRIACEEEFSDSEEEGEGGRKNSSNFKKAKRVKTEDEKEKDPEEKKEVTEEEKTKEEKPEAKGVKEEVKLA

Row | IC50 | SMILES
36 | 260 nM | CC(=O)Nc1ccc(-c2nc(Nc3ccc(OCCCCCC(=O)NO)cc3)ncc2C)cc1
37 | 155 nM | CC(=O)Nc1ccc(-c2nc(Nc3cccc(OCCCCCCC(=O)NO)c3)ncc2C)cc1
38 | 934 nM | O=C(CCCCCCC(=O)Nc1ccc(-c2ccnc(Nc3ccc(N4CCCCC4)cc3)n2)cc1)NO

target: T1, Protein deacetylase HDAC6 (Homo sapiens, UniProt Q9UBN7); experiment: Inhibition of HDAC6 (unknown origin) using Arg-His-Lys-Lys(Ac) as substrate preincubated with enzyme followed by substrate addition for 2 hrs and measured for 1.5 hrs at 15 mins time interval by fluorescence assay; conditions: not given
T1 sequence (Q9UBN7 whole entry): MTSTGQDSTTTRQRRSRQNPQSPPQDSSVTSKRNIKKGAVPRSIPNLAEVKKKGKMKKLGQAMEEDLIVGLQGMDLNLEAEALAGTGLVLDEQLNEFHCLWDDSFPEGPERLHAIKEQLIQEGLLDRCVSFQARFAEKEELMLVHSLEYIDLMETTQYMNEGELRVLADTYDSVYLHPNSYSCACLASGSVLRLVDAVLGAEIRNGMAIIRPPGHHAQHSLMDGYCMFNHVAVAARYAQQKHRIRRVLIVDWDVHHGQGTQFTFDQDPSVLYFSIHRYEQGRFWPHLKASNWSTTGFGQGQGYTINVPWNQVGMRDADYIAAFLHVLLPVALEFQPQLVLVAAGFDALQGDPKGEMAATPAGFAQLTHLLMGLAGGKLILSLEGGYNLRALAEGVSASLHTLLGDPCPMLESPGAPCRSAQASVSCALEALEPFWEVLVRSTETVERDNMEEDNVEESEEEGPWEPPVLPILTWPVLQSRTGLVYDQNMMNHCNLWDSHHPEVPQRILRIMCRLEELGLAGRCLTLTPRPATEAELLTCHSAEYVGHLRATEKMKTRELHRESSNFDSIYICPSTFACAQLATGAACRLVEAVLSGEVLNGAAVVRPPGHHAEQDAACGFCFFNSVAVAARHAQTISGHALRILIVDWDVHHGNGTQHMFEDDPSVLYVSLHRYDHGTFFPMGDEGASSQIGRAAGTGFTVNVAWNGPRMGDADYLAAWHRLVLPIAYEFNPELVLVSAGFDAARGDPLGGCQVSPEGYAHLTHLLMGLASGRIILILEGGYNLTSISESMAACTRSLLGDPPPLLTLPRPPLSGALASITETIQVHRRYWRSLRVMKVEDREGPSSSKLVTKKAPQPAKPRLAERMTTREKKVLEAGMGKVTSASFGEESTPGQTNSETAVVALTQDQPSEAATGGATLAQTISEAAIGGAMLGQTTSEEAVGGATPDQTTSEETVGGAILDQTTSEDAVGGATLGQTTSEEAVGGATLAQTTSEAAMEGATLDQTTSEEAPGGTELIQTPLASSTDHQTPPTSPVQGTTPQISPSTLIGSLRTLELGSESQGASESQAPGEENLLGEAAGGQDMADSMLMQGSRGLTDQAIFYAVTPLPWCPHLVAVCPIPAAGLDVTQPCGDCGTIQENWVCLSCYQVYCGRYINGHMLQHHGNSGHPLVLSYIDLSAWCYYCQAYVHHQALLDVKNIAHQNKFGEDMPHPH

Row | IC50 | SMILES
39 | 3.5 nM | CC(=O)Nc1ccc(-c2nc(Nc3ccc(OCCCCCC(=O)NO)cc3)ncc2C)cc1
40 | 6.1 nM | CC(=O)Nc1ccc(-c2nc(Nc3cccc(OCCCCCCC(=O)NO)c3)ncc2C)cc1
41 | 23 nM | O=C(CCCCCCC(=O)Nc1ccc(-c2ccnc(Nc3ccc(N4CCCCC4)cc3)n2)cc1)NO

system: not listed separately; experiment: Selectivity index, ratio of CC50 for mouse TAMH cells to IC50 for human MCF7 cells; assay type: toxicity; conditions: TAMH cells (CC50) and MCF7 cells (IC50)

Row | SMILES | selectivity ratio
42 | CC(=O)Nc1ccc(-c2nc(Nc3ccc(OCCCCCC(=O)NO)cc3)ncc2C)cc1 | 2.35
43 | CC(=O)Nc1ccc(-c2nc(Nc3cccc(OCCCCCCC(=O)NO)c3)ncc2C)cc1 | 2.3
